Data taken from patent US20050155119A1, “Chlorophyllous totipotent cell cultures” (Dow AgroSciences LLC, priority 2004, published 2005).

Tests used:
maize = settings: in vivo; cited from earlier work
rice = settings: in vivo; cited from earlier work
green suspension cells = assay: Response of the green maize suspension to streptomycin and spectinomycin; type: cell-based
Halophila ovalis = settings: 10 mg/l of Zn (153 μm); cited from earlier work
Brassica juncea = settings: 100 mg Zn/l (1529 μm) added to soil mixtures; cited from earlier work
PS-II electron transport = assay: Oxygen electrode determination of photosynthetic electron transport with diuron; type: cell-based, maize
Method: The oxygen electrode was set up per manufacturer's instructions by covering the silver electrode with layers of KCl solution, cigarette paper, and PTFE gas permeable membrane. The circulating water bath used to maintain a constant temperature of 24° C. during the course of the experiments. An experiment was initiated by the addition of 1 mL of suspension containing 100 mg of the green suspension cells to the electrode chamber. Oxygen uptake within the chamber was limited by the insertion of a plunger to the level of the liquid, and the flea magnet was turned on to assure adequate mixing during each experiment. Data points were collected by LabVIEW 5.1 and sent to an EXCEL spreadsheet. Data points were collected at a rate of 0.2/sec over 70 scans. […]
Photosynthetic electron transport was measured with an oxygen electrode in the absence and presence of diuron (DCMU), a PS-II electron transport inhibitor at several concentrations (Figure below). […] A light intensity of 225 μmol M^−2 S^−1 photosynthetic photon flux density was used to drive electron transport, and oxygen evolution was measured polarographically.
Whether or not Diuron treatment lead to inhibition of oxygen was investigated using an oxygen electrode. To determine amount of photosynthesis occurring in the cells, respiration rates were measured with and without the exposure of the cells to a strong light source. […]

## [Cu] [Cu, Copper]
maize
  No Observable Adverse Effect Level (tissue concentration that did not decrease top growth): 40 mg/kg
  critical Cu toxicity level: 20 mg/kg
  critical level of Cu: 21 mg/kg
rice
  critical Cu toxicity level: 20 mg/kg

## [H]/N=C(/N)N[C@H]1[C@H](O)[C@@H](O)[C@H](O[C@@H]2O[C@@H](C)[C@](O)(C=O)[C@H]2O[C@@H]2O[C@@H](CO)[C@H](O)[C@@H](O)[C@@H]2NC)[C@@H](N/C(N)=N\[H])[C@@H]1O [Streptomycin]
Green suspension cells; 62.5 mg/L
  plants recovered when germinated in Streptomycin-containing medium: albino plants were recovered
Green suspension cells; 125 mg/L
  bleaching of cells: fully bleached
Green suspension cells; 125 mg/l (FIG. 2 legend)
  plants recovered when germinated in Streptomycin-containing medium: albino plants were recovered
Green suspension cells; 250 mg/L (FIG. 2 legend)
  bleaching of cells: partially bleached
Green suspension cells; 500 mg/L
  appearance of cells: excessive browning and necrosis
Green suspension cells; 500 mg/l, after ~4 weeks
  growth and appearance of green suspension cells: growth was inhibited, and the cells were bleached or browned and showed excessive necrosis

## [Zn] [Zn, Zinc]
Halophila ovalis
  total chlorophyll concentrations: increase in total chlorophyll concentrations
Brassica juncea
  phytotoxicity: not phytotoxic

## CN(C)C(=O)Nc1ccc(Cl)c(Cl)c1 [diuron]
PS-II electron transport; 100 mg green suspension in 1 mL, illuminated, oxygen electrode
  concentration with greater effect of inhibiting the light reaction of photosynthesis: 0.01 M
PS-II electron transport; green suspension, FIG. 4
  effect on light induced oxygen evolution: cut down the light induced oxygen evolution

## CN[C@@H]1[C@H](O)[C@H](NC)[C@H]2O[C@@]3(O)C(=O)C[C@@H](C)O[C@H]3O[C@@H]2[C@H]1O [spectinomycin]
Green suspension cells; various spectinomycin concentrations
  response of the green suspension: did not respond
